According to patent US4950686A, “Anti-mycoplasma agent” (Shionogi & Co., Ltd., priority 1986, dated 1990):
In brackets after ≈: the same amount, converted by molar mass. Structures can show the parent of a compound that is named as a salt. Where two headings read alike, the source gives them in different places. Values belong to the compound of their own block, whether it stands above or below them.

Legend:
[1] = test system: Mycoplasma gallisepticum T-7-T (wild strain, tylosin-resistant); test: Anti-mycoplasma activity in vitro (MIC, broth dilution), strain T-7-T; format: cell-based; conditions: Mg T-7-T, 37° C., 7 days
Method: (§1) (1) Anti-mycoplasma activity test in vitro
(§2) MIC values of each of Tropolones were measured on the following strains according to the following method.
(§3) (a) Mycoplasma gallisepticum
(§4) T-7-T (wild strain, tylosin-resistant)
(§5) Medium: Chick PPLO broth supplemented with 20% equine serum (Eiken Kagaku Co., Ltd.)
(§6) Method: Broth dilution method
(§7) Inoculum: Culture incubated at 37° C. for 24-48 hr which is diluted with broth to 10^6 CCU/ml immediately before the use.
(§8) To 1.6 ml of the broth is added 0.2 ml of an agent which has been subjected to 2-fold dilution and then added 0.2 ml of inoculum, which is incubated at 37° C. for 7 days.

[2] = test system: Mycoplasma gallisepticum S6 (standard strain); test: Anti-mycoplasma activity in vitro (MIC, broth dilution), strain S6; format: cell-based; conditions: Mg S6, 37° C., 7 days
Method: as §1, §2, §3, §5, §6, §7, §8

[3] = test system: Mycoplasma gallisepticum S6 (standard strain); test: Mycoplasma gallisepticum air-sac infection method in chicken, strain S6; format: in vivo, Mycoplasma gallisepticum; SPF chicken (white leghorn)
Method: (§9) (2) Test of Effectiveness Mycoplasma gallisepticum air-sac infection method
(§10) Inoculation: To the right air-sac of 9 days old SPF chicken (a white leghorn) which has abstained from water and feed one day before is inoculated 0.20-0.25 ml/chicken of fresh mycoplasma culture incubated for 24-48 hr and diluted with broth (usually 100 times). The concentration in Table 2 is shown in a unit of mg/ml.
(§11) Medium: Chick PPLO broth supplemented with 15% equine serum (Eiken Kagaku Co., Ltd.)
(§12) Administration: A compound of this invention dissolved or suspended in the following solution is orally and forcibly administered once by a cannula immediately after the infection.
(§13) Anatomization and Isolation of Microorganism: The chickens are anatomized 5 days after the infection, and the right and left air sacs are investigated whether they are attacked with a disease or not. The change caused by the disease is represented in four degrees; -: no change, +: slight, ++: medium and +++: serious. Microorganism is isolated from the right and left air-sacs and the trachea by using a sterilized applicator.
(§14) Judgement: Judgement is done through an index of an air-sac disease and an index of a microorganism-isolation.
(§15) Index of an air-sac-disease: First, indexes in the right and left air-sacs are separately calculated according to the following formula;
(§16) {degree of disease (0-3)×chickens}/anatomized chickens
(§17) and the index is calculated by the following formula;
(§18) (index of right air-sac)×1+(index of left air-sac)×2
(§19) Index of a microorganism isolation:
(§20) P: chickens from the right air-sac of which microorganism is isolated,
(§21) Q: chickens from the trachea of which microorganism is isolated,
(§22) R: chickens from the left air-sac of which microorganism is isolated, and
(§23) S: chickens investigated.

[4] = test system: Mycoplasma gallisepticum MR-1 (wild strain, tylosin-resistant); test: Anti-mycoplasma activity in vitro (MIC, broth dilution), strain MR-1; format: cell-based; conditions: Mg MR-1, 37° C., 7 days
Method: as §1, §2, §3
MR-1 (wild strain, tylosin-resistant)
as §5, §6, §7, §8

[5] = test system: Mycoplasma hyopneumoniae ST-11 (standard strain); test: Anti-mycoplasma activity in vitro (MIC, broth dilution), strain ST-11; format: cell-based; conditions: Mh ST-11
Method: as §1, §2
(b) Mycoplasma hyopneumoniae
Strain: ST-11 (standard strain)
Medium: 850 ml of Hanks' solution supplemented with 0.5% lactoalbumin, 50 ml of 25% yeast, 100 ml of equine serum and 4-6 ml of 0.5% phenol red (pH 7.4-7.6)
as §6
Inoculum: Culture which is incubated for 3-4 days and diluted 10 times with the broth if color of the broth becomes yellow then. If it needs over 4 days until color of the broth becomes yellow, it is further subcultured. This is diluted 10 times with the broth to give inoculum.
Assay is done in the same manner as in the above (a).

[6] = test system: Mycoplasma gallisepticum T-7-T (wild strain, tylosin-resistant); test: Mycoplasma gallisepticum air-sac infection method in chicken, strain T-7-T;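 on Index of Isolation: index = (P×1 + Q×2 + R×3)/S with range 0 to 6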; format: in vivo, Mycoplasma gallisepticum; SPF chicken (white leghorn); conditions: 100 mg/kg × once oral, 10 mg/ml sol. b; for Change of air-sac, left: + (chickens) / Change of air-sac, left: ++ (chickens) / Change of air-sac, left: +++ (chickens) / Change of air-sac, left: - (chickens) / Change of air-sac, right: + (chickens) / Change of air-sac, right: ++ (chickens) / Change of air-sac, right: +++ (chickens) / Change of air-sac, right: - (chickens) / Isolation, L (left air-sac) / Isolation, R (right air-sac) / Isolation, T (trachea) / Mycoplasma Isolated Chickens: inoculum 10^2; for Index of Isolation: inoculum 10^2, range 0-6.0; for Index of Disease: inoculum 10^2, range 0-9.0
Method: as §9, §4, §10, §11, §12, §13, §14, §15, §16, §17, §18, §19, §20, §21, §22, §23

[7] = 200 mg/kg × once oral, 20 mg/ml sol. b, inoculum 1.18 × 10^6
[8] = Mycoplasmoides gallisepticum, 168 h, read-out: MIC
[9] = 100 mg/kg × once oral, 10 mg/ml sol. b, inoculum 1.2 × 10^6
[10] = 100 mg/kg × once oral, 10 mg/ml sol. b, inoculum 1.2 × 10^6, range 0-6.0
[11] = 100 mg/kg × once oral, 10 mg/ml sol. b, inoculum 1.2 × 10^6, range 0-9.0
[12] = Mesomycoplasma hyopneumoniae, read-out: MIC
[13] = 100 mg/kg × once oral, 10 mg/ml sol. b, inoculum 7.7 × 10^5
[14] = 100 mg/kg × once oral, 10 mg/ml sol. b, inoculum 7.7 × 10^5, range 0-6.0
[15] = 100 mg/kg × once oral, 10 mg/ml sol. b, inoculum 7.7 × 10^5, range 0-9.0

SMILES: O=c1cccccc1O [Compound 12, Tropolone L-arginine salt]
MIC [1]: 3.13 µg/mL | MIC [2]: 3.13 µg/mL | Change of air-sac, left: + (chickens) [3, 7]: 0 | Change of air-sac, left: ++ (chickens) [3, 7]: 0 | Change of air-sac, left: +++ (chickens) [3, 7]: 0 | Change of air-sac, left: - (chickens) [3, 7]: 5 | Change of air-sac, right: + (chickens) [3, 7]: 1 | Change of air-sac, right: ++ (chickens) [3, 7]: 0 | Change of air-sac, right: +++ (chickens) [3, 7]: 0 | Change of air-sac, right: - (chickens) [3, 7]: 4 | Isolation, L (left air-sac) [3, 7]: 0 | Isolation, R (right air-sac) [3, 7]: 2 | Isolation, T (trachea) [3, 7]: 1 | Mycoplasma Isolated Chickens [3, 7]: 2 | Index of Isolation ([3]; 200 mg/kg × once oral, 20 mg/ml sol. b, inoculum 1.18 × 10^6, range 0-6.0): 0.8 | Index of Disease ([3]; 200 mg/kg × once oral, 20 mg/ml sol. b, inoculum 1.18 × 10^6, range 0-9.0): 0.2 | MIC [4]: 3.13 µg/mL | MIC [5]: 1.56 µg/mL

SMILES: CC(C)(C)C(=O)OCOc1cccccc1=O [Compound 19, O-(pivaloyloxymethyl)tropolone]
MIC [1, 8]: 0.78 µg/mL (≈ 3.3 µM) | MIC [2, 8]: 0.39 µg/mL (≈ 1.65 µM) | Change of air-sac, left: + (chickens) [3, 9]: 0 | Change of air-sac, left: ++ (chickens) [3, 9]: 0 | Change of air-sac, left: +++ (chickens) [3, 9]: 0 | Change of air-sac, left: - (chickens) [3, 9]: 8 | Change of air-sac, right: + (chickens) [3, 9]: 0 | Change of air-sac, right: ++ (chickens) [3, 9]: 0 | Change of air-sac, right: +++ (chickens) [3, 9]: 0 | Change of air-sac, right: - (chickens) [3, 9]: 8 | Isolation, L (left air-sac) [3, 9]: 1 | Isolation, R (right air-sac) [3, 9]: 1 | Isolation, T (trachea) [3, 9]: 2 | Mycoplasma Isolated Chickens [3, 9]: 2 | Index of Isolation [3, 10]: 1.01 | Index of Disease [3, 11]: 0 | Change of air-sac, left: + (chickens) [6]: 0 | Change of air-sac, left: ++ (chickens) [6]: 0 | Change of air-sac, left: +++ (chickens) [6]: 0 | Change of air-sac, left: - (chickens) [6]: 8 | Change of air-sac, right: + (chickens) [6]: 0 | Change of air-sac, right: ++ (chickens) [6]: 0 | Change of air-sac, right: +++ (chickens) [6]: 0 | Change of air-sac, right: - (chickens) [6]: 8 | Isolation, L (left air-sac) [6]: 2 | Isolation, R (right air-sac) [6]: 1 | Isolation, T (trachea) [6]: 5 | Mycoplasma Isolated Chickens [6]: 5 | Index of Isolation [6]: 2.00 | Index of Disease [6]: 0 | MIC [4, 8]: 1.56 µg/mL (≈ 6.6 µM) | MIC [5, 12]: 0.1 µg/mL (≈ 0.423 µM)

Now from value to compound, other results behind:

MIC [1, 8]: 0.78 µg/mL (≈ 3.07 µM) | MIC [2, 8]: 0.39 µg/mL (≈ 1.53 µM) | MIC [4, 8]: 0.78 µg/mL (≈ 3.07 µM) | MIC [5, 12]: 0.39 µg/mL (≈ 1.53 µM)
SMILES: O=C1OC(Oc2cccccc2=O)c2ccccc21 (stereo not shown) [Compound 23, O-(1,3-Dihydro-3-oxo-1-isobenzofuranyl)tropolone]
Change of air-sac, left: + (chickens) [3, 9]: 0 | Change of air-sac, left: ++ (chickens) [3, 9]: 0 | Change of air-sac, left: +++ (chickens) [3, 9]: 0 | Change of air-sac, left: - (chickens) [3, 9]: 8 | Change of air-sac, right: + (chickens) [3, 9]: 0 | Change of air-sac, right: ++ (chickens) [3, 9]: 0 | Change of air-sac, right: +++ (chickens) [3, 9]: 0 | Change of air-sac, right: - (chickens) [3, 9]: 8 | Isolation, L (left air-sac) [3, 9]: 1 | Isolation, R (right air-sac) [3, 9]: 1 | Isolation, T (trachea) [3, 9]: 4 | Mycoplasma Isolated Chickens [3, 9]: 4 | Index of Isolation [3, 10]: 1.90 | Index of Disease [3, 11]: 0 | Change of air-sac, left: + (chickens) [6]: 0 | Change of air-sac, left: ++ (chickens) [6]: 0 | Change of air-sac, left: +++ (chickens) [6]: 0 | Change of air-sac, left: - (chickens) [6]: 8 | Change of air-sac, right: + (chickens) [6]: 0 | Change of air-sac, right: ++ (chickens) [6]: 0 | Change of air-sac, right: +++ (chickens) [6]: 0 | Change of air-sac, right: - (chickens) [6]: 8 | Isolation, L (left air-sac) [6]: 6 | Isolation, R (right air-sac) [6]: 5 | Isolation, T (trachea) [6]: 6 | Mycoplasma Isolated Chickens [6]: 6 | Index of Isolation [6]: 4.20 | Index of Disease [6]: 0

MIC [1, 8]: 0.39 µg/mL (≈ 1.67 µM) | MIC [2, 8]: 0.39 µg/mL (≈ 1.67 µM) | MIC [4, 8]: 0.39 µg/mL (≈ 1.67 µM) | MIC [5, 12]: 0.2 µg/mL (≈ 0.854 µM)
SMILES: Cc1oc(=O)oc1COc1cccccc1=O [Compound 25, O-{(2-Oxo-5-methyl-1,3-dioxol-4-yl)methyl}tropolone]
Change of air-sac, left: + (chickens) [3, 13]: 0 | Change of air-sac, left: ++ (chickens) [3, 13]: 0 | Change of air-sac, left: +++ (chickens) [3, 13]: 0 | Change of air-sac, left: - (chickens) [3, 13]: 8 | Change of air-sac, right: + (chickens) [3, 13]: 1 | Change of air-sac, right: ++ (chickens) [3, 13]: 0 | Change of air-sac, right: +++ (chickens) [3, 13]: 0 | Change of air-sac, right: - (chickens) [3, 13]: 7 | Isolation, L (left air-sac) [3, 13]: 6 | Isolation, R (right air-sac) [3, 13]: 5 | Isolation, T (trachea) [3, 13]: 7 | Mycoplasma Isolated Chickens [3, 13]: 7 | Index of Isolation [3, 14]: 4.38 | Index of Disease [3, 15]: 0.13

MIC [1, 8]: 12.5 µg/mL (≈ 82.2 µM) | MIC [2, 8]: 6.25 µg/mL (≈ 41.1 µM) | MIC [4, 8]: 6.25 µg/mL (≈ 41.1 µM) | MIC [5, 12]: 3.13 µg/mL (≈ 20.6 µM)
SMILES: COc1ccccc(O)c1=O [Compound 26, 7-Methoxytropolone]
Change of air-sac, left: + (chickens) [3, 13]: 0 | Change of air-sac, left: ++ (chickens) [3, 13]: 0 | Change of air-sac, left: +++ (chickens) [3, 13]: 0 | Change of air-sac, left: - (chickens) [3, 13]: 8 | Change of air-sac, right: + (chickens) [3, 13]: 4 | Change of air-sac, right: ++ (chickens) [3, 13]: 2 | Change of air-sac, right: +++ (chickens) [3, 13]: 0 | Change of air-sac, right: - (chickens) [3, 13]: 2 | Isolation, L (left air-sac) [3, 13]: 8 | Isolation, R (right air-sac) [3, 13]: 5 | Isolation, T (trachea) [3, 13]: 8 | Mycoplasma Isolated Chickens [3, 13]: 8 | Index of Isolation [3, 14]: 4.88 | Index of Disease [3, 15]: 1.00
